Measurements published in the supplement of paper PMC10307832.

Legend:
Experiment in all cases: relative viability (nuclei count vs DMSO), 5 days (fraction); higher = more cells survive
[1] = compound: Cc1ccc(C(=O)Nc2cccc(C(F)(F)F)c2)cc1Nc1cncc(C(N)=O)c1 [ALW-II-49-7] + Cc1nc(NC(=O)N2CCC[C@H]2C(N)=O)sc1-c1ccnc(C(C)(C)C(F)(F)F)c1 [Alpelisib] (partner 2 µM)
Method in brief: (§1)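 For relative viability, nuclei counts in treated wells were divided by those in vehicle wells. Lung cancer cell lines had been pin-tool dosed in 1536-well plates the day after seeding and cultured for 5 days, then fixed and stained in one step (final 0.05% Triton X-100, 1% formaldehyde, 1 ug/ml Hoechst) and imaged at 4×. Doses were one drug alone or a fixed anchor-drug dose plus five library-drug doses (not always all listed) in √10 steps, and values are duplicate-plate medians.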

[2] = compound: C1CC1C(=O)NC2=NNC3=C2C=CC(=C3)C4=CC(=CC=C4)C(=O)NC5CC5 [XMD13-2] + Cc1nc(Nc2ncc(C(=O)Nc3c(C)cccc3Cl)s2)cc(N2CCN(CCO)CC2)n1 [Dasatinib] (partner 0.075 µM)
Method in brief: as §1

[3] = compound: Cc1nc(Nc2ncc(C(=O)Nc3c(C)cccc3Cl)s2)cc(N2CCN(CCO)CC2)n1 [Dasatinib] + CCNC(=O)c1noc(-c2cc(C(C)C)c(O)cc2O)c1-c1ccc(CN2CCOCC2)cc1 [Luminespib] (partner 0.01 µM)
Method in brief: as §1

[4] = compound: Cc1nc(Nc2ncc(C(=O)Nc3c(C)cccc3Cl)s2)cc(N2CCN(CCO)CC2)n1 [Dasatinib] + Nc1ncn([C@H]2C[C@H](O)[C@@H](CO)O2)c(=O)n1 [Decitabine] (partner 2 µM)
Method in brief: as §1

Cell Line | relative viability ([1]; first compound 0.08 µM) | relative viability ([1]; first compound 0.253 µM) | relative viability ([1]; first compound 0.8 µM) | relative viability ([1]; first compound 2.53 µM) | relative viability ([1]; first compound 8 µM) | relative viability ([2]; first compound 0.05 µM) | relative viability ([2]; first compound 0.1581 µM) | relative viability ([2]; first compound 0.5 µM) | relative viability ([2]; first compound 1.581 µM) | relative viability ([2]; first compound 5 µM) | relative viability ([3]; first compound 0.005 µM) | relative viability ([3]; first compound 0.01581 µM) | relative viability ([3]; first compound 0.05 µM) | relative viability ([3]; first compound 0.1581 µM) | relative viability ([3]; first compound 0.5 µM) | relative viability ([4]; first compound 0.005 µM) | relative viability ([4]; first compound 0.01581 µM) | relative viability ([4]; first compound 0.05 µM) | relative viability ([4]; first compound 0.1581 µM) | relative viability ([4]; first compound 0.5 µM)
NCI-H1944 | 0.817 | 0.836 | 0.807 | 0.916 | 0.941 | 0.226 | 0.236 | 0.229 | 0.235 | 0.213 | 0.73 | 0.625 | 0.609 | 0.448 | 0.129 | 0.439 | 0.39 | 0.36 | 0.272 | 0.189
LK-2 | 1.14 | 1.09 | 1.02 | 0.74 | 0.967 | 0.343 | 0.276 | 0.361 | 0.304 | 0.234 | 0.188 | 0.194 | 0.156 | 0.158 | 0.195 | 0.265 | 0.308 | 0.174 | 0.159 | 0.174
NCI-H441 | 0.854 | 0.771 | 0.768 | 0.48 | 0.591 | 0.567 | 0.668 | 0.54 | 0.625 | 0.516 | 0.372 | 0.307 | 0.225 | 0.196 | 0.193 | 0.276 | 0.232 | 0.272 | 0.202 | 0.19
NCI-H23 | 0.692 | 0.803 | 0.613 | 0.726 | 0.985 | 0.907 | 0.725 | 0.82 | 0.748 | 0.99 | 0.233 | 0.195 | 0.217 | 0.19 | 0.187 | 0.273 | 0.293 | 0.286 | 0.27 | 0.236
NCI-H647 | 0.769 | 1.13 | 1.19 | 0.882 | 0.557 | 0.17 | 0.172 | 0.207 | 0.13 | 0.115 | 0.141 | 0.0794 | 0.137 | 0.117 | 0.0952 | 0.379 | 0.311 | 0.315 | 0.173 | 0.182
201T | 1 | 1.02 | 1.02 | 0.992 | 1.02 | 0.686 | 0.533 | 0.578 | 0.555 | 0.563 | 0.998 | 0.81 | 0.836 | 0.548 | 0.378 | 0.834 | 0.795 | 0.802 | 0.646 | 0.416
NCI-H1734 | 0.645 | 0.774 | 0.657 | 0.694 | 0.577 | 0.493 | 0.419 | 0.484 | 0.373 | 0.428 | 0.185 | 0.191 | 0.159 | 0.167 | 0.156 | 0.508 | 0.48 | 0.533 | 0.412 | 0.321
NCI-H596 | 0.443 | 0.513 | 0.497 | 0.469 | 0.438 | 0.683 | 0.571 | 0.578 | 0.713 | 0.664 | 0.809 | 0.691 | 0.776 | 0.552 | 0.478 | 0.955 | 0.916 | 0.724 | 0.668 | 0.542
